Source: patent US20240209028A1, “CNP COMPOUNDS” (priority 2022, published 2024)
Starred links: 1 amine or outer side, 2 acyl side, 3 side chain; linkers in the order of their positions; H or OH if unused. Positions of bridges follow the written chain, without caps; N, C: chain ends. Residues, ends and D or L forms follow the SMILES beside them. *: point of attachment. C18 diacid = O=C(O)CCCCCCCCCCCCCCCCC(=O)*; γGlu = O=C(O)[C@H](CCC(=O)[*:2])N[*:1]; AEEA = NCCOCCOCC(=O)O

Target: T1, human natriuretic peptide receptor 2 (hNPR2) (Homo sapiens, UniProt P20594)
T1 construct: expressed in transfected cells; host or cells: HEK293 (ATCC CRL-1573), clone 35, co-transfected with pGloSensor-42F
T1 sequence (P20594 23-1047): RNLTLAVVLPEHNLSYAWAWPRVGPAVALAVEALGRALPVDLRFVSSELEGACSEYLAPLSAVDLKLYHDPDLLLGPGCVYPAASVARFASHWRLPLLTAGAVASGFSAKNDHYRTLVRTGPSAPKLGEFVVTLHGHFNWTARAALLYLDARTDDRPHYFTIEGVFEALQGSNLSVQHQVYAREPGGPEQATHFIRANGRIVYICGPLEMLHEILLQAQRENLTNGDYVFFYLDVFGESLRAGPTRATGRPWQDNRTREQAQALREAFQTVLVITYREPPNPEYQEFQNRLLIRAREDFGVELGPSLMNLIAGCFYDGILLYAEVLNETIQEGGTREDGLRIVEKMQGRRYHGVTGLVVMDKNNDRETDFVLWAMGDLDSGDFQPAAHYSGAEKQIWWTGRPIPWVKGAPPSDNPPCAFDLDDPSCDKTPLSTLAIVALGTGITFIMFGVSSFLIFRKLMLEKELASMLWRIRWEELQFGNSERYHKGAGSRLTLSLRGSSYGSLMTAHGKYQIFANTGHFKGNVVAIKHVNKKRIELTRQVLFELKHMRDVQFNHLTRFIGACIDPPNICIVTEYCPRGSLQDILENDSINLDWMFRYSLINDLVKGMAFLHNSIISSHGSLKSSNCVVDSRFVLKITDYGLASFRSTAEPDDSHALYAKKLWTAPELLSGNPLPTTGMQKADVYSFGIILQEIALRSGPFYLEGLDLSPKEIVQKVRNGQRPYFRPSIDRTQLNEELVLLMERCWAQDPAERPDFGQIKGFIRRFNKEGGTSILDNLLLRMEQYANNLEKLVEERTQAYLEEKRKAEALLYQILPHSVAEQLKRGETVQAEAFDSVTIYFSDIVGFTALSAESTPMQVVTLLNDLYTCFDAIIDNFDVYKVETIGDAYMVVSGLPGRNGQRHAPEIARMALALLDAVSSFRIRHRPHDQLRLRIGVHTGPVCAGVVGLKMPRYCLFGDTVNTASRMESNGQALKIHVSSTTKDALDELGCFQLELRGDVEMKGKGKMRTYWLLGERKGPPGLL
Assay: In vitro hNPR2 activity assay (cGMP GloSensor reporter, HEK293)
Type: cell-based
Details: potency relative to CNP22 (0065)
Method in brief: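 Potency is the EC50 from a four-parameter logistic fit, also expressed relative to the in-plate CNP22 control (×100), with at least two replicates. Compounds (ten concentrations, […], HSA-free diluent with 1% OVA, 0.01% Tween20) were incubated 30 min at 37 °C on HEK293 cells co-expressing hNPR2 and a GloSensor cGMP luciferase. Luminescence detected with Bright-Glo.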

| Compound | hNPR2 0% HSA. [EC50% rel CNP] [%] |
| --- | --- |
| CC[C@H](C)[C@@H]1NC(=O)[C@H](CCCNC(=N)N)NC(=O)[C@H](CC(=O)O)NC(=O)[C@H](CC(C)C)NC(=O)[C@@H]2CCCN2C(=O)[C@H](CC(C)C)NC(=O)CNC(=O)[C@H](Cc2ccccc2)NC(=O)[C@@H](NC(=O)CNC(=O)[C@H](CO)NC(=O)[C@H](CO)NC(=O)[C@H](CC(C)C)NC(=O)CNC(=O)[C@H](CCCCN)NC(=O)[C@H](CCCCN)NC(=O)[C@H](CCC(N)=O)NC(=O)[C@H](C)NC(=O)CNC(=O)[C@H](CCC(=O)O)NC(=O)[C@H](Cc2ccc(O)cc2)NC(=O)CNC(=O)CNC(=O)CNC(=O)COCCOCCNC(=O)COCCOCCNC(=O)CC[C@H](NC(=O)CCCCCCCCCCCCCCCCC(=O)O)C(=O)O)CSSC[C@@H](C(=O)O)NC(=O)CNC(=O)[C@H](CC(C)C)NC(=O)CNC(=O)[C@H](CO)NC(=O)[C@H](CC(C)C)NC(=O)[C@H](CO)NC(=O)CNC1=O [compound 1378] ({C18 diacid-γGlu-AEEA-AEEA}-GGGYEGAQKKGLSSGCFGLPLDRIGSLSGLGC-OH; disulfide 16-32) | 28.6 |
| CC[C@H](C)[C@@H]1NC(=O)[C@H](CCCNC(=N)N)NC(=O)[C@H](CC(=O)O)NC(=O)[C@H](CC(C)C)NC(=O)[C@@H]2CCCN2C(=O)[C@H](CC(C)C)NC(=O)CNC(=O)[C@H](Cc2ccccc2)NC(=O)[C@@H](NC(=O)CNC(=O)[C@H](CO)NC(=O)[C@H](CO)NC(=O)[C@H](CC(C)C)NC(=O)CNC(=O)[C@H](CCCCN)NC(=O)[C@H](CCCCN)NC(=O)[C@H](CCC(N)=O)NC(=O)[C@H](C)NC(=O)CNC(=O)[C@H](CCC(=O)O)NC(=O)[C@H](Cc2ccc(O)cc2)NC(=O)[C@H](CO)NC(=O)[C@H](CCCNC(=N)N)NC(=O)[C@H](C)NC(=O)[C@H](CCC(N)=O)NC(=O)[C@@H]2CCCN2C(=O)[C@H](Cc2c[nH]cn2)NC(=O)[C@H](CCC(=O)O)NC(=O)[C@H](CCC(N)=O)NC(=O)COCCOCCNC(=O)COCCOCCNC(=O)CC[C@H](NC(=O)CCCCCCCCCCCCCCCCC(=O)O)C(=O)O)CSSC[C@@H](C(=O)O)NC(=O)CNC(=O)[C@H](CC(C)C)NC(=O)CNC(=O)[C@H](CO)NC(=O)[C@H](CC(C)C)NC(=O)[C@H](CO)NC(=O)CNC1=O [compound 1379] ({C18 diacid-γGlu-AEEA-AEEA}-QEHPQARSYEGAQKKGLSSGCFGLPLDRIGSLSGLGC-OH; disulfide 21-37; C-terminus assumed) | 33.5 |
| CC[C@H](C)[C@@H]1NC(=O)[C@H](CCCNC(=N)N)NC(=O)[C@H](CC(=O)O)NC(=O)[C@H](CC(C)C)NC(=O)[C@@H]2CCCN2C(=O)[C@H](CC(C)C)NC(=O)CNC(=O)[C@H](Cc2ccccc2)NC(=O)[C@@H](NC(=O)CNC(=O)[C@H](CCC(N)=O)NC(=O)[C@H](CO)NC(=O)[C@H](CO)NC(=O)CNC(=O)[C@H](Cc2c[nH]cn2)NC(=O)[C@H](Cc2c[nH]cn2)NC(=O)[C@H](CCC(N)=O)NC(=O)[C@H](C)NC(=O)CNC(=O)[C@H](Cc2c[nH]cn2)NC(=O)[C@H](Cc2ccc(O)cc2)NC(=O)[C@H](CCCCN)NC(=O)[C@H](Cc2c[nH]cn2)NC(=O)[C@H](C)NC(=O)[C@H](CCC(N)=O)NC(=O)[C@@H]2CCCN2C(=O)[C@H](Cc2c[nH]cn2)NC(=O)[C@H](CCC(=O)O)NC(=O)[C@H](CCC(N)=O)NC(=O)COCCOCCNC(=O)COCCOCCNC(=O)CC[C@H](NC(=O)CCCCCCCCCCCCCCCCC(=O)O)C(=O)O)CSSC[C@@H](C(=O)O)NC(=O)CNC(=O)[C@H](CC(C)C)NC(=O)CNC(=O)[C@H](CO)NC(=O)[C@H](CC(C)C)NC(=O)[C@H](CO)NC(=O)CNC1=O [compound 1381] ({C18 diacid-γGlu-AEEA-AEEA}-QEHPQAHKYHGAQHHGSSQGCFGLPLDRIGSLSGLGC-OH; disulfide 21-37) | 38.7 |
| CC[C@H](C)[C@@H]1NC(=O)[C@H](CCCNC(=N)N)NC(=O)[C@H](CC(=O)O)NC(=O)[C@H](CC(C)C)NC(=O)[C@@H]2CCCN2C(=O)[C@H](CC(C)C)NC(=O)CNC(=O)[C@H](Cc2ccccc2)NC(=O)[C@@H](NC(=O)CNC(=O)[C@H](CCC(N)=O)NC(=O)[C@H](CO)NC(=O)[C@H](CC(C)C)NC(=O)CNC(=O)[C@H](CCCCN)NC(=O)[C@H](CCCCN)NC(=O)[C@H](CCC(N)=O)NC(=O)[C@H](C)NC(=O)CNC(=O)[C@H](CCCCN)NC(=O)[C@H](Cc2ccc(O)cc2)NC(=O)[C@H](CCCCN)NC(=O)[C@H](Cc2c[nH]cn2)NC(=O)[C@H](C)NC(=O)[C@H](CCC(N)=O)NC(=O)[C@@H]2CCCN2C(=O)[C@H](Cc2c[nH]cn2)NC(=O)[C@H](CCC(=O)O)NC(=O)[C@H](CCC(N)=O)NC(=O)COCCOCCNC(=O)COCCOCCNC(=O)CC[C@H](NC(=O)CC[C@H](NC(=O)CC[C@H](NC(=O)CCCCCCCCCCCCCCCCC(=O)O)C(=O)O)C(=O)O)C(=O)O)CSSC[C@@H](C(=O)O)NC(=O)CNC(=O)[C@H](CC(C)C)NC(=O)CNC(=O)[C@H](CO)NC(=O)[C@H](CC(C)C)NC(=O)[C@H](CO)NC(=O)CNC1=O [compound 1382] ({C18 diacid-γGlu-γGlu-γGlu-AEEA-AEEA}-QEHPQAHKYKGAQKKGLSQGCFGLPLDRIGSLSGLGC-OH; disulfide 21-37) | 43.8 |
| CC[C@H](C)[C@@H]1NC(=O)[C@H](CCCNC(=N)N)NC(=O)[C@H](CC(=O)O)NC(=O)[C@H](CC(C)C)NC(=O)[C@@H]2CCCN2C(=O)[C@H](CC(C)C)NC(=O)CNC(=O)[C@H](Cc2ccccc2)NC(=O)[C@@H](NC(=O)CNC(=O)[C@H](CO)NC(=O)[C@H](CO)NC(=O)[C@H](CC(C)C)NC(=O)CNC(=O)[C@H](CCCCN)NC(=O)[C@H](CCCCN)NC(=O)[C@H](CCC(N)=O)NC(=O)[C@H](C)NC(=O)CNC(=O)[C@H](CCCCN)NC(=O)[C@H](Cc2ccc(O)cc2)NC(=O)[C@H](CCCCN)NC(=O)[C@H](CCCNC(=N)N)NC(=O)[C@H](C)NC(=O)CC[C@H](NC(=O)CC[C@H](NC(=O)CC[C@H](NC(=O)CC[C@H](NC(=O)CCCCCCCCCCCCCCCCC(=O)O)C(=O)O)C(=O)O)C(=O)O)C(=O)O)CSSC[C@@H](C(=O)O)NC(=O)CNC(=O)[C@H](CC(C)C)NC(=O)CNC(=O)[C@H](CO)NC(=O)[C@H](CC(C)C)NC(=O)[C@H](CO)NC(=O)CNC1=O [compound 1386] ({C18 diacid-γGlu-γGlu-γGlu-γGlu}-ARKYKGAQKKGLSSGCFGLPLDRIGSLSGLGC-OH; disulfide 16-32) | 36.9 |
| CC[C@H](C)[C@@H]1NC(=O)[C@H](CCCNC(=N)N)NC(=O)[C@H](CC(=O)O)NC(=O)[C@H](CC(C)C)NC(=O)[C@@H]2CCCN2C(=O)[C@H](CC(C)C)NC(=O)CNC(=O)[C@H](Cc2ccccc2)NC(=O)[C@@H](NC(=O)CNC(=O)[C@H](CO)NC(=O)[C@H](CO)NC(=O)[C@H](CC(C)C)NC(=O)CNC(=O)[C@H](CCCCN)NC(=O)[C@H](CCCCN)NC(=O)[C@H](CCC(N)=O)NC(=O)[C@H](C)NC(=O)CNC(=O)[C@H](CCCCN)NC(=O)[C@H](Cc2ccc(O)cc2)NC(=O)[C@H](CCCCN)NC(=O)[C@H](CCCNC(=N)N)NC(=O)[C@H](C)NC(=O)[C@H](CCC(N)=O)NC(=O)[C@@H]2CCCN2C(=O)[C@H](Cc2c[nH]cn2)NC(=O)[C@H](CCC(=O)O)NC(=O)[C@H](CCC(N)=O)NC(=O)CC[C@H](NC(=O)CC[C@H](NC(=O)CC[C@H](NC(=O)CC[C@H](NC(=O)CCCCCCCCCCCCCCCCC(=O)O)C(=O)O)C(=O)O)C(=O)O)C(=O)O)CSSC[C@@H](C(=O)O)NC(=O)CNC(=O)[C@H](CC(C)C)NC(=O)CNC(=O)[C@H](CO)NC(=O)[C@H](CC(C)C)NC(=O)[C@H](CO)NC(=O)CNC1=O [compound 1389] ({C18 diacid-γGlu-γGlu-γGlu-γGlu}-QEHPQARKYKGAQKKGLSSGCFGLPLDRIGSLSGLGC-OH; disulfide 21-37) | 52.3 |
